Experimental data from PubChem BioAssay (NCI).
Values joined by “and” are separate entries in the source; they are usually repeats but may differ in a detail not shown here. Identical values can stand only once.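 Results reflect a 48-hour exposure of cells in 96-well plates to compound at five concentrations. GI50: concentration for 50% inhibition of growth. TGI: total growth inhibition.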

Legend:
Assay in all cases: growth of human tumour cells (NCI), 48 h
[1] = test system: NCI-H460 lung
[2] = test system: COLO 205 colon
[3] = test system: SNB-75 CNS
[4] = test system: ACHN renal
[5] = test system: HOP-62 NSCLC
[6] = test system: MOLT-4 leukemia
[7] = test system: HT29 colon
[8] = test system: A549 NSCLC
[9] = test system: SN12C renal
[10] = test system: MDA-MB-231 breast

SMILES	TGI [1]	TGI [2]	TGI [3]	TGI [4]	TGI [5] [µM]	TGI [6]	TGI [7]	TGI [8]	TGI [9]	GI50 [1]	GI50 [2] [µM]	GI50 [4] [µM]	GI50 [5] [µM]	GI50 [7] [µM]	GI50 [10]	TGI [10]	GI50 [8] [µM]	GI50 [9]	GI50 [3] [µM]	GI50 [6]
CCN(CC)CCOc1ccc(/C=C(\C#N)c2ccc(OCCN(CC)CC)cc2)cc1	36.6 µM	23 µM	47.8 µM	> 58.8 µM	22.6	38.2 µM	8.58 µM	44.7 µM	> 100 µM											
Cc1ccccc1N1C(=O)/C(=C/c2ccc(N(CCC#N)CCC#N)cc2)N=C1c1cc([N+](=O)[O-])ccc1Cl	> 100 µM	72 µM	> 100 µM	> 100 µM	> 100	> 100 µM	> 100 µM		> 100 µM											
O=C1CCCC/C(=C/c2ccccc2)N1	> 100 µM	> 100 µM	> 100 µM	> 100 µM	> 100	> 100 µM	> 100 µM	> 100 µM	> 100 µM											
O=c1nc2occc2cn1C1CC(O)C(CO)O1 (stereo not drawn)	> 100 µM	> 100 µM	> 100 µM	> 100 µM	> 100	> 100 µM	> 100 µM	> 100 µM	> 100 µM											
CCOC(=O)/C=C/C(C(=O)/C=C/c1ccc(OC2CCCCO2)c(OC)c1)=C(O)\C=C\c1ccc(OC2CCCCO2)c(OC)c1 (stereo not drawn)	50.5 µM	11.4 µM		12.5 µM	32.5		4.51 µM	39 µM	4.96 µM	11.9 µM	3.1	3.61	6.09	1.94	2.56 µM	6.73 µM	13.5	2.16 µM		
COC(=O)C(C(=O)C(=O)Nc1cccc(OC)c1)c1cnc2ccccc2n1 (stereo not drawn)	> 100 µM	> 100 µM	> 100 µM	> 100 µM	> 100	> 100 µM	> 100 µM	> 100 µM	> 100 µM											
COC(=O)C1=C(C)N(NC(=O)c2ccccc2)C(C)(O)C12CCOC2=O (stereo not drawn)	> 100 µM	> 100 µM		> 100 µM	> 100	> 100 µM	> 100 µM	> 100 µM	> 100 µM											
CC(O)C(N=Cc1ccccc1[O-])C(=O)[O-].CC(O)C(N=Cc1ccccc1[O-])C(=O)[O-].[Co+2] (stereo not drawn)		> 100 µM	> 100 µM	> 100 µM		> 100 µM		> 100 µM	> 100 µM		> 100	> 100					> 100	> 100 µM	> 100	19 µM
CC1=Nc2ccccc2C1C(Cc1ccccc1N)c1c(C)[nH]c2ccccc12 (stereo not drawn)	35.2 µM	30.2 µM	34.8 µM	30.1 µM	27.9	53.4 µM	33.1 µM	32.8 µM	33.6 µM											
CC1OC(n2cc(F)c(=O)[nH]c2=O)C=CC1O (stereo not drawn)	> 100 µM	> 100 µM	> 100 µM	> 100 µM	> 100	> 100 µM	> 100 µM	> 100 µM	> 100 µM											
Cc1nnc(S(=O)(=O)c2ccc(N=Nc3c(N)nc(N)nc3N)cc2)s1	> 100 µM	> 100 µM		> 100 µM	> 100	> 100 µM	> 100 µM	> 100 µM	> 100 µM							> 100 µM				
O=C1OC(c2ccccc2)=N/C1=C/C=C/c1ccco1		> 100 µM		> 100 µM		> 100 µM	> 100 µM	> 100 µM	> 100 µM											
OCCN1CN(CCO)CN(c2nc(N3CN(CCO)CN(CCO)C3)nc(N3CN(CCO)CN(CCO)C3)n2)C1	3.85 ng/mL			1.64 ng/mL		4.78 ng/mL	0.63 ng/mL	69.5 ng/mL	7.22 ng/mL	0.92 ng/mL					0.776 ng/mL	1.83 ng/mL		6.3 ng/mL		1.23 ng/mL
O=C(O/N=C1/CCCC/C1=C\c1ccccc1)c1ccccc1		> 100 µM	> 100 µM	> 100 µM	> 100	49 µM	> 100 µM	> 100 µM	> 100 µM											
COc1ccc(OC)c(NC(=O)C(=O)NNC(=O)c2sc(NNC(C)=O)nc2C)c1	> 100 µM			96.1 µM	> 100	47.1 µM	> 100 µM	> 100 µM	> 100 µM											
O=Cc1cc2c(cc1-c1c(C=O)ccc3c1OCO3)OCO2		> 10 µM	> 10 µM	> 10 µM	> 10	> 10 µM	> 10 µM	> 10 µM	> 10 µM							> 10 µM				
C/C1=C\CC[C@@]2(C)O[C@@H]2[C@H]2OC(=O)[C@@H](CN(C)C)[C@@H]2CC1	> 100 µM	98.4 µM		31.6 µM	40.4	9.82 µM	61.4 µM	63.3 µM	32.4 µM	32.8 µM	33.8	15.6	20.9	19.9	14.2 µM	34.6 µM	19.6	12.8 µM		2.89 µM
Cc1ccc(SC(C)/C=C/NNC2=NC(c3ccccc3)C(c3ccccc3)=NN2)cc1 (stereo not drawn)	> 100 µM	> 100 µM	> 100 µM	> 100 µM		> 100 µM	27.3 µM	> 100 µM	> 100 µM											
C/C(=C\CCc1ccoc1)CC/C=C(\C)CCCC1=CC(=O)OC1	27.8 µM	23.1 µM	52 µM	> 100 µM	55	15.4 µM		> 100 µM	39.6 µM	5.21 µM	4.96	12.6	16		5.97 µM	28.9 µM	4.37	11.2 µM	4.46	3.94 µM
NC(=NCCCOc1ccc(Cl)cc1)Nc1ccc(C(F)(F)F)cc1	4.97 µM	3.25 µM	7.67 µM	7.03 µM	6.43	5 µM	5.55 µM	12.6 µM	14.2 µM	2 µM	1.54	2.27	2.28	1.88			2.78	3.07 µM	0.914	1.41 µM
CC(C)(C)[SiH]12(OC(C(F)(F)F)(C(F)(F)F)c3ccccc31)OC(C(F)(F)F)(C(F)(F)F)c1ccccc12	6.68 µM	21 µM	7.18 µM	21.7 µM		5.41 µM	13.2 µM	19.9 µM	19.4 µM											

SMILES	TGI [1]	TGI [2]	TGI [3]	TGI [4]	TGI [5] [µM]	TGI [6]	TGI [7]	TGI [8]	TGI [9]	GI50 [1]	GI50 [2] [µM]	GI50 [4] [µM]	GI50 [5] [µM]	GI50 [7] [µM]	GI50 [10]	TGI [10]	GI50 [8] [µM]	GI50 [9]	GI50 [3] [µM]	GI50 [6]
COC(=O)c1cc2c3ccccc3n(C(C)=O)c2cn1	> 100 µM	> 100 µM	> 100 µM	> 100 µM	> 100	> 100 µM	> 100 µM	> 100 µM	> 100 µM											
COC(=O)C1=C(c2ccc3c(c2)OCO3)O[C@H](c2cc(OC)c(OC)c(OC)c2)[C@H]1COC(C)=O	> 100 µM	3.02 µM	> 100 µM	> 100 µM	84.7	27.8 µM	11.5 µM	47.8 µM	37.9 µM											
COc1ccc(NC(=O)CCc2cc(-c3ccc(O)c(OC)c3)nc(NC#N)n2)cc1	> 100 µM	> 100 µM		> 100 µM	> 100	> 100 µM	> 100 µM	> 100 µM	> 100 µM											
Cc1cc(Br)cc(C)c1NC(=O)C(=O)C(C(=O)c1ccc2ccccc2c1)C1OC(=O)c2ccccc21 (stereo not drawn)	20.9 µM	50.9 µM	43.9 µM	34.7 µM	18.7	13.4 µM	41.7 µM	> 100 µM	50.5 µM											
CSc1nc2c(nc(C)c(=O)n2C2OCC(OC(C)=O)C(OC(C)=O)C2OC(C)=O)c(=O)[nH]1 (stereo not drawn)	> 100 µM	> 100 µM	> 100 µM	> 100 µM	> 100	> 100 µM	> 100 µM	> 100 µM	> 100 µM											
O=C(Nc1nc2ncn(CCI)c2c(=O)[nH]1)c1ccccc1	> 100 µM	> 100 µM	46.4 µM	> 100 µM	> 81.1	> 100 µM	> 100 µM	> 100 µM	> 100 µM											
Clc1ccc2c(NCCCNc3nccc(Nc4ccc(Br)cc4)n3)ccnc2c1	3.44 µM	3.22 µM	2.57 µM	3.2 µM			2.67 µM	3.52 µM	3.37 µM	1.76 µM	1.64	1.66		1.26	1.79 µM	3.47 µM	1.78	1.69 µM	1.3	
O=[N+]([O-])c1nccn1CC(O)c1ccc(F)cc1 (stereo not drawn)	> 100 µM	> 100 µM	> 100 µM	> 100 µM	> 100	> 100 µM	> 100 µM	> 100 µM	> 100 µM											
Cc1ccc(S(=O)(=O)NCC2CCCCC2=O)cc1 (stereo not drawn)	> 100 µM	> 100 µM	93.1 µM			> 100 µM	> 100 µM	> 100 µM	> 100 µM											
C=C(C=O)[C@@H]1C2OC(=O)C(=C)[C@@H]2CC(O)[C@@]1(C)CC (stereo partly drawn)	51.4 µM	11.7 µM	> 100 µM	27.1 µM	> 100	9.08 µM	21.5 µM	> 100 µM	32.6 µM											
O=C1CN=C(C[N+](=O)[O-])c2ccccc21	> 100 µM	> 100 µM	> 100 µM	> 100 µM	> 100	> 100 µM	> 100 µM	> 100 µM	> 100 µM											
CCCCOC(=O)C1C(c2ccc(Cl)cc2)NC(c2ccc(Cl)cc2)C(C(=O)OCCCC)S1(=O)=O (stereo not drawn)	> 100 µM	> 100 µM	> 100 µM	> 100 µM	> 100	> 100 µM	> 100 µM	> 100 µM	> 100 µM											
Cc1c2cccnc2c(C)c2c1c1cc(CO)ccc1n2C	6.12 µM	6.11 µM		6.89 µM	6.52	22.5 µM	10.6 µM	11.7 µM	40.3 µM	1.23 µM	1.51	0.937	1.31	1.92	2.61 µM	13.2 µM	2.65	2.08 µM		1.64 µM
CC(C)(C)OC(=O)NCC(=O)OCc1ccccc1	> 100 µM	> 100 µM	> 100 µM	> 100 µM	> 100	> 100 µM	> 100 µM	> 100 µM	> 100 µM											
O=S(O)CCCCSSCC(O)C(O)CSSCCCCS(=O)O (stereo not drawn)	> 100 µM	29 µM and 39.5 µM	> 100 µM and 88.7 µM	68.7 µM and 90 µM	> 100	6.69 µM and 9.58 µM	24.4 µM and 27 µM	> 100 µM	> 100 µM											
O=C1c2ccccc2C(=O)C1(Cl)C1(S(=O)(=O)O)c2ccccc2-c2ccccc21	> 100 µM	> 100 µM	> 100 µM	> 100 µM	> 100	> 100 µM	> 100 µM	> 100 µM	> 100 µM											
CS(=O)(=O)N/N=C/CN1C(=O)c2ccccc2C1=O	> 100 µM	> 100 µM	> 100 µM	> 100 µM	> 100	> 100 µM	> 100 µM	> 100 µM	> 100 µM											
CC(=O)O.CC(=O)O.CC(=O)O.CC(=O)O.CC(=O)O.CC(=O)O.O.[Ti].[Ti]		> 100 µM	> 100 µM	> 100 µM	> 100	> 100 µM	> 100 µM	> 100 µM	> 100 µM		> 100	> 100	> 100	> 100			> 100	> 100 µM	56	> 100 µM
C=C(CCCCC)CN1CCCC1[C@@](C)(O)CC(=O)OCC (stereo partly drawn)	> 100 µM	> 100 µM	> 100 µM	> 100 µM	> 100	> 100 µM	> 100 µM	> 100 µM	> 100 µM											
CNC(=S)NC1CCCCC1NC(=S)NC (stereo not drawn)	> 100 µM	> 100 µM	> 100 µM	> 100 µM	> 100	> 100 µM	> 100 µM	> 100 µM	> 100 µM											
